For one experiment, the system named is GERD patients. The conditions noted are these: cited from earlier work.
For the next experiment, the system named is parietal cell. The note with it: meal-induced gastric acid secretion; cited from earlier work.
The test system of experiment [1] is pH of the stomach contents. As to the kind of experiment: pH of the stomach contents of treated pigs. It is filed as in vivo. An excerpt:
FIG. 1 illustrates experimental data concerning the percentage of time that the gastric contents remain above pH 3 in different groups of pigs treated with ranitidine (4 animals), omeprazole (5 animals) and hG17(1-9) (4 animals), as compared to six (6) control animals.
FIG. 2 illustrates the percentage of time that the gastric contents remain above pH 4 in a group of untreated (control) pigs […] and groups of pigs treated with human gastrin 17(1-9)Ser9-Diphtheria […] (4 animals), ranitidine (4 animals) and omeprazole (5 animals) as described in FIG. 1.
FIG. 3 depicts the baseline median pH of the gastric contents of a group of six (6) untreated (control) pigs and groups of four (4) pigs treated with human G17(1-9)Ser9-Diphtheria Toxoid, […] pigs with ranitidine and five (5) pigs with omeprazole as described in FIG. 1.
In the following Examples, the anti G17 immunogenic composition, 150 mg ranitidine and 60 mg omeprazole were administered to pigs and the resulting changes in the pH of the stomach contents before and after treatment were measured. Specifically, following the stomach pH measurements of the untreated control state of each pig, the stomach pH of the same pigs was measured after the animals were treated with either ranitidine, or composition of human gastrin 17(1-9)-h(G 17)ser9-Diphtheria Toxoid (Gastrimmune), or omeprazole administered individually and at different times in each of four animals (pigs).

In a further experiment the target is gastrin-17 (Homo sapiens, UniProt P01350). In words: Serum anti-gastrin antibody response of Gastrimmune-immunized mice (ELISA). Format: in vivo. The source says: Gastrin neutralization was achieved by using the immunological composition Gastrimmune which is composed of the amino terminal domain of gastrin-17 linked, via an amino acid or peptide spacer to diphtheria toxoid which acts as the immunogenic carrier.
Serum antibody titers rose within 2 weeks of the initial immunization to levels with an antigen binding capacity of >10^−9M. The presence of anti-gastrin antibodies within the serum of Gastrimmune-immunized mice was confirmed by using an ELISA. As expected, no bound gastrin levels were detected in animals immunized with control immunogen.
For orientation: An ELISA detects its analyte on a solid surface through an enzyme-linked reagent.

Setting [2] is: 400-800 mg cimetidine and 150-300 mg ranitidine twice daily.

Where only a bound is given, the exact number is not on record here.

Consider `CN/C(=N/CCSCc1nc[nH]c1C)NC#N` [cimetidine], for which, in the experiment on GERD patients (setting [2]), the “patients with healing of esophagitis, endoscopically determined (mean)” value is reported as 48% and the “patients with symptomatic relief of GERD (mean)” value is given as 61%. The “efficacy in GERD patients at doses and durations proven effective in healing peptic ulcers” value with GERD patients (GERD patients, peptic ulcer doses and durations) is on record as “not effective in GERD”.
In the case of `Cc1c(OCC(F)(F)F)ccnc1C[S+]([O-])c1nc2ccccc2[nH]1` (stereo not drawn) [lansoprazole], the “effectiveness in alleviating the symptoms of GERD esophagitis compared with histamine H2 blockers” value in the experiment on GERD patients (human, in vivo) is listed as “more effective than histamine H2 blockers”.
In the case of heptadecagastrin [Peptide G17], the “potency as stimulator of gastric acid secretion relative to histamine” value in the experiment on parietal cell is listed as 1500 times.
As for “human gastrin 17(1-9)-h(G 17)ser9-Diphtheria Toxoid [Gastrimmune]”, the “inhibition of acid output from the stomach” value in experiment [1] is “inhibited stomach acid output at a level of effectiveness between ranitidine and omeprazole”. Further, the “time that the gastric contents remain above pH 3” value in experiment [1] (FIG. 1, 150 mg ranitidine, 60 mg omeprazole) is reported as “for a longer period of time than in the pigs treated with ranitidine”. Moreover, in experiment [1] (FIG. 2, 150 mg ranitidine, 60 mg omeprazole), the “time that the gastric contents remain above pH 4” value is “for a longer period of time than in the pigs treated with ranitidine”. Further, in experiment [1] (FIG. 3), the “median pH of the stomach contents” value is on record as “higher than ranitidine treated pigs”. The “presence of anti-gastrin antibodies within the serum (ELISA)” value at gastrin-17 (Gastrimmune-immunized mice) is “confirmed”. The “cross-reactivity of the antibodies raised” value on gastrin-17 (mouse, in vivo) was “cross-reacted with both amidated and glycine-extended gastrin-17”. Besides, the “antigen binding capacity of serum antibody titers” value at gastrin-17 (within 2 weeks of the initial immunization) is recorded as > 10^−9 M.

The record behind these values is US20060039911A1, “Method for the treatment of gastroesophageal reflux disease” (Aphton Corporation, priority 1998, published 2006).
